Active and inactive are the calls of the source. The calls are words filed in the database; no cut-off is given here.
Key:
[1] = molecular target: Serine/threonine-protein kinase NLK (Homo sapiens) (UniProt Q9UBE8); assay: Inhibition of human NLK at 1 uM relative to control
[2] = molecular target: BDNF/NT-3 growth factors receptor (Homo sapiens) (UniProt Q16620); assay: Inhibition of human TRKB at 1 uM relative to control
[3] = Clearance in Sprague-Dawley rat at 10 mg/kg, po measured upto 12 hrs by LC-MS/MS analysis; assay type: ADME, organism-based; settings: in vivo
[4] = molecular target: Glycogen synthase kinase-3 alpha (Homo sapiens) (UniProt P49840); assay: Inhibition of human GSK3A at 1 uM relative to control
[5] = molecular target: Tyrosine-protein kinase JAK3 (Homo sapiens) (UniProt P52333); assay: Inhibition of human JAK3 at 1 uM relative to control
[6] = molecular target: Cyclin-dependent kinase 5/CDK5 activator 1 (Homo sapiens) (UniProt Q00535+Q15078); assay: Inhibition of human CDK5/p35 at 1 uM relative to control; assay type: protein-complex assay
[7] = Half life in Sprague-Dawley rat at 5 mg/kg, iv measured upto 12 hrs by LC-MS/MS analysis; assay type: ADME, organism-based; settings: in vivo
[8] = molecular target: Catenin beta-1 (Homo sapiens) (UniProt P35222); assay: Inhibition of beta-catenin in human HCT-116 cells assessed as accumulation in cytoplasm incubated for 24 hrs by DAPI staining based immunofluorescence assay; assay type: cell-based
[9] = molecular target: Cyclin-dependent kinase 8 (Mus musculus) (UniProt Q8R3L8); assay: Inhibition of CDK8 in mouse BMDC cells assessed as reduction in IFNgamma-induced STAT1 phosphorylation at S727 residue pretreated with IFNgamma for 2 hrs followed by compound treatment for 24 hrs by Western blot assay; assay type: cell-based
[10] = Cmax in Sprague-Dawley rat at 5 mg/kg, iv measured upto 12 hrs by LC-MS/MS analysis; assay type: ADME, organism-based; parameters: dose 5 mg/kg, time < 12 hrs, route iv; settings: in vivo
[11] = molecular target: Aurora kinase C (Homo sapiens) (UniProt Q9UQB9); assay: Inhibition of human Aurora C at 1 uM relative to control
[12] = molecular target: Tyrosine-protein kinase JAK1 (Homo sapiens) (UniProt P23458); assay: Inhibition of human JAK1 at 1 uM relative to control
[13] = molecular target: Serine/threonine-protein kinase pim-3 (Homo sapiens) (UniProt Q86V86); assay: Inhibition of human PIM3 at 1 uM relative to control
[14] = molecular target: Epidermal growth factor receptor (Homo sapiens) (UniProt P00533); assay: Inhibition of human EGFR at 1 uM relative to control
[15] = molecular target: Dual specificity protein kinase CLK3 (Homo sapiens) (UniProt P49761); assay: Inhibition of human CLK3 at 1 uM relative to control
[16] = MRT in Sprague-Dawley rat at 5 mg/kg, iv measured upto 12 hrs by LC-MS/MS analysis; assay type: ADME, organism-based; settings: in vivo
[17] = molecular target: Mitogen-activated protein kinase 10 (Homo sapiens) (UniProt P53779); assay: Inhibition of human JNK3 at 1 uM relative to control
Mitogen-activated protein kinase 10 (Homo sapiens), sequence (P53779 whole entry): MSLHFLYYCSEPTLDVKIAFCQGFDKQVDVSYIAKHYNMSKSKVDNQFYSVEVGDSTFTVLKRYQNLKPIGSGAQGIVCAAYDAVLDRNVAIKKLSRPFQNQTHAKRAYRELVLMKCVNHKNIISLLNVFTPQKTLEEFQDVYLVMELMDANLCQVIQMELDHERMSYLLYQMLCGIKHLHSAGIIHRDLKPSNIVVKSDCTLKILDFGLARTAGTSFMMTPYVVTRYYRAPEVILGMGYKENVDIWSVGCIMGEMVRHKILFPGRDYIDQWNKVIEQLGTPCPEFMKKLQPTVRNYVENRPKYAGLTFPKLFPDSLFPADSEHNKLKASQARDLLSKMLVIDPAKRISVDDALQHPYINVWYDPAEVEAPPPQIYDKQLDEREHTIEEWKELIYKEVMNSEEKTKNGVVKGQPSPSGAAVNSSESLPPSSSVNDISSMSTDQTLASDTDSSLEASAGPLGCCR

[18] = molecular target: Fibroblast growth factor receptor 1 (Homo sapiens) (UniProt P11362); assay: Inhibition of human FGFR1 at 1 uM relative to control
[19] = molecular target: Tyrosine-protein kinase JAK2 (Homo sapiens) (UniProt O60674); assay: Inhibition of human JAK2 at 1 uM relative to control
[20] = molecular target: Phosphatidylinositol 4-phosphate 3-kinase C2 domain-containing subunit alpha (Homo sapiens) (UniProt O00443); assay: Inhibition of human PI3K-C2-alpha at 1 uM relative to control
[21] = molecular target: Receptor-type tyrosine-protein kinase FLT3 (Homo sapiens) (UniProt P36888); assay: Inhibition of human FLT3 at 1 uM relative to control
[22] = AUC(0 to infinity) in Sprague-Dawley rat at 5 mg/kg, iv measured upto 12 hrs by LC-MS/MS analysis; assay type: ADME, organism-based; parameters: time < 12 hrs, dose 5 mg/kg, route iv; settings: in vivo
[23] = molecular target: Fibroblast growth factor receptor 3 (Homo sapiens) (UniProt P22607); assay: Inhibition of human FGFR3 at 1 uM relative to control
[24] = molecular target: Mitogen-activated protein kinase 8 (Homo sapiens) (UniProt P45983); assay: Inhibition of human JNK1-alpha-1 at 1 uM relative to control
Mitogen-activated protein kinase 8 (Homo sapiens), sequence (P45983 whole entry): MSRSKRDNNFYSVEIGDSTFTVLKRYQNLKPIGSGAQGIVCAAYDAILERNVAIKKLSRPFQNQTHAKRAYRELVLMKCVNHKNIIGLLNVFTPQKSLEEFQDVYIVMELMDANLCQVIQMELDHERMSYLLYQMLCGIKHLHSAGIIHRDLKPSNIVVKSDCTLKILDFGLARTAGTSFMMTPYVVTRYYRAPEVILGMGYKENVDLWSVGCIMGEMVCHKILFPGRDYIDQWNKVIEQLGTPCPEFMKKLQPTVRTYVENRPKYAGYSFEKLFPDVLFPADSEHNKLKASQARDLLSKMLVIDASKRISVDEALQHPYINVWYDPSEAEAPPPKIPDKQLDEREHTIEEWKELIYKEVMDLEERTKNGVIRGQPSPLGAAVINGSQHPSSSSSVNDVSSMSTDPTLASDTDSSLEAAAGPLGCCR

[25] = molecular target: MAP kinase-interacting serine/threonine-protein kinase 2 (Homo sapiens) (UniProt Q9HBH9); assay: Inhibition of human MNK2 at 1 uM relative to control
[26] = molecular target: Serine/threonine-protein kinase B-raf (Homo sapiens) (UniProt P15056); assay: Inhibition of human BRAF at 1 uM relative to control
[27] = molecular target: Citron Rho-interacting kinase (Homo sapiens) (UniProt O14578); assay: Inhibition of human CRIK at 1 uM relative to control
[28] = molecular target: Fibroblast growth factor receptor 2 (Homo sapiens) (UniProt P21802); assay: Inhibition of human FGFR2 at 1 uM relative to control
[29] = AUC(0 to infinity) in Sprague-Dawley rat at 10 mg/kg, po measured upto 12 hrs by LC-MS/MS analysis; assay type: ADME, organism-based; parameters: dose 10 mg/kg, time < 12 hrs, route po; settings: in vivo
[30] = Tmax in Sprague-Dawley rat at 10 mg/kg, po measured upto 12 hrs by LC-MS/MS analysis; assay type: ADME, organism-based; settings: in vivo
[31] = molecular target: Tyrosine-protein kinase Lck (Homo sapiens) (UniProt P06239); assay: Inhibition of human LCK at 1 uM relative to control
[32] = molecular target: Tyrosine-protein kinase Lyn (Homo sapiens) (UniProt P07948); assay: Inhibition of human LYN at 1 uM relative to control
Tyrosine-protein kinase Lyn (Homo sapiens), sequence (P07948 2-512 limits assumed): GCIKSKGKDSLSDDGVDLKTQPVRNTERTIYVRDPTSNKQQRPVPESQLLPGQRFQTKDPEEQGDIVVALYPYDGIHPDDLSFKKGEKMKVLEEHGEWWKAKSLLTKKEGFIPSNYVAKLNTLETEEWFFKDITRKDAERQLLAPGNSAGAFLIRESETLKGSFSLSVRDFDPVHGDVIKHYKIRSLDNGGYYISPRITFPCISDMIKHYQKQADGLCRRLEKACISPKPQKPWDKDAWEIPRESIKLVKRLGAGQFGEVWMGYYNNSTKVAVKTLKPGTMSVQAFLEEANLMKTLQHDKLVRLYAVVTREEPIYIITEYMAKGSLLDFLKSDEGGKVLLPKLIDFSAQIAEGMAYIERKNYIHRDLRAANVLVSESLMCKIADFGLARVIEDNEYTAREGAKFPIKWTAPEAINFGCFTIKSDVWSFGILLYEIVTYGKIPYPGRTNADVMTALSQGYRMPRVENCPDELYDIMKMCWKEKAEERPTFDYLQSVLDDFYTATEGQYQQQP

[33] = molecular target: Mitogen-activated protein kinase kinase kinase 11 (Homo sapiens) (UniProt Q16584); assay: Inhibition of human MLK3 at 1 uM relative to control
[34] = molecular target: Serine/threonine-protein kinase PAK 1 (Homo sapiens) (UniProt Q13153); assay: Inhibition of human PAK1 at 1 uM relative to control
[35] = molecular target: Vascular endothelial growth factor receptor 1 (Homo sapiens) (UniProt P17948); assay: Inhibition of human FLT1 at 1 uM relative to control
[36] = molecular target: Discoidin domain-containing receptor 2 (Homo sapiens) (UniProt Q16832); assay: Inhibition of human DDR2 at 1 uM relative to control
[37] = molecular target: LIM domain kinase 1 (Homo sapiens) (UniProt P53667); assay: Inhibition of human LIMK1 at 1 uM relative to control
LIM domain kinase 1 (Homo sapiens), sequence (P53667 whole entry, looked up, the tested form may be a part): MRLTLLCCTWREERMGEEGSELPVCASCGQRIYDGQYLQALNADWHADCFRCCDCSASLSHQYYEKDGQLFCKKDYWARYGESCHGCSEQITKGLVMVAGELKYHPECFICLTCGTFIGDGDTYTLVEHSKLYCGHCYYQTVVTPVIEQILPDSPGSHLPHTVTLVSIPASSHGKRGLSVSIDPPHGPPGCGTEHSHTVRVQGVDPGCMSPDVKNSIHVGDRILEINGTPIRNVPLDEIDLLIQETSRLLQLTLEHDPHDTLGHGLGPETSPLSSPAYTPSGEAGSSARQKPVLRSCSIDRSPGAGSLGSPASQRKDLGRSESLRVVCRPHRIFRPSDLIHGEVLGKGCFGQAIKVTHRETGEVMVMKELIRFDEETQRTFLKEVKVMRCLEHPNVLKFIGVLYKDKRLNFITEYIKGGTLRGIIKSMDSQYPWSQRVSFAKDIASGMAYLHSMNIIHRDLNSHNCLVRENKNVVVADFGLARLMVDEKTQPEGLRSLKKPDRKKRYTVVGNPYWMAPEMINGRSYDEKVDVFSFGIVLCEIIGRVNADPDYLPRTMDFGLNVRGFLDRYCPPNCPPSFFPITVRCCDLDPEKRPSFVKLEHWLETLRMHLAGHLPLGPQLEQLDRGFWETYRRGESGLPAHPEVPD

[38] = molecular target: Aurora kinase B (Homo sapiens) (UniProt Q96GD4); assay: Inhibition of human Aurora B at 1 uM relative to control
Aurora kinase B (Homo sapiens), sequence (Q96GD4 whole entry): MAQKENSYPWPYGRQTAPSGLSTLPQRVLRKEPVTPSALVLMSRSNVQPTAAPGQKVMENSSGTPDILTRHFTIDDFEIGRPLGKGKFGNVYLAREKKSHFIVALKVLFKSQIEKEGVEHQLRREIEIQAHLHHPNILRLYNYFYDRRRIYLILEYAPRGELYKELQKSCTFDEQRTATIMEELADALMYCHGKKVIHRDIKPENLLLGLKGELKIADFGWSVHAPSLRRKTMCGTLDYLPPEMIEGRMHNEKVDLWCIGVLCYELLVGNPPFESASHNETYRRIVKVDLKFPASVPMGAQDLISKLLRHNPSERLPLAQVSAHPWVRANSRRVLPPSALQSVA

[39] = molecular target: Mitogen-activated protein kinase 8 (Homo sapiens) (UniProt P45983); assay: Inhibition of human JNK1-alpha-2 at 1 uM relative to control
[40] = molecular target: Tyrosine-protein kinase Mer (Homo sapiens) (UniProt Q12866); assay: Inhibition of human MER at 1 uM relative to control
Tyrosine-protein kinase Mer (Homo sapiens), sequence (Q12866 whole entry): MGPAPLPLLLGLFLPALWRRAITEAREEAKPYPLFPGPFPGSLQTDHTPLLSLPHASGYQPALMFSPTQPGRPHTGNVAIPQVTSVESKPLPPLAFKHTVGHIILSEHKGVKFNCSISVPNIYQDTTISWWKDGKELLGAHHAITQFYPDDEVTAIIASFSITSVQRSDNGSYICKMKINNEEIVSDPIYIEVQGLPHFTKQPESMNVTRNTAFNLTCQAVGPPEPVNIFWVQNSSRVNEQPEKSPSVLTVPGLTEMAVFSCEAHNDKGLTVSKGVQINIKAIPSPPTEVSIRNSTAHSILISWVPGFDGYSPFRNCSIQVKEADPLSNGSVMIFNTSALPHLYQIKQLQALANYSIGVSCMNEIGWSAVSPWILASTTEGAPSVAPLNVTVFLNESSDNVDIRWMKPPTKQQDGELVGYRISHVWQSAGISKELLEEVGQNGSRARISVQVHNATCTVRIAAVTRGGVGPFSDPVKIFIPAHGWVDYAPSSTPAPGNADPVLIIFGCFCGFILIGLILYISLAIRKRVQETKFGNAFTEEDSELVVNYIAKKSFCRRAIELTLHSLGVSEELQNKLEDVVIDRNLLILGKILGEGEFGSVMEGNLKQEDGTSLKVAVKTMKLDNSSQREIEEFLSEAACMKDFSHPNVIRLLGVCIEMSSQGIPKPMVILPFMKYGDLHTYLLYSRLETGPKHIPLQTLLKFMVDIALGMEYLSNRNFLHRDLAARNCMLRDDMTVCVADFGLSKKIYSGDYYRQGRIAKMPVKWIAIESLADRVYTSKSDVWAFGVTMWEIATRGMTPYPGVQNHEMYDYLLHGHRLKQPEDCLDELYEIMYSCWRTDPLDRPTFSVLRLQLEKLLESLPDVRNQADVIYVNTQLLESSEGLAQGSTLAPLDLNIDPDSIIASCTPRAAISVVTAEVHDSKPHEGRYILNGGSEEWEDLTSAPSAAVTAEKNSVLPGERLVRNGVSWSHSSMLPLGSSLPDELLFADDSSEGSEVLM

[41] = molecular target: Glycogen synthase kinase-3 beta (Homo sapiens) (UniProt P49841); assay: Inhibition of human GSK3B at 1 uM relative to control
Glycogen synthase kinase-3 beta (Homo sapiens), sequence (P49841 whole entry, looked up): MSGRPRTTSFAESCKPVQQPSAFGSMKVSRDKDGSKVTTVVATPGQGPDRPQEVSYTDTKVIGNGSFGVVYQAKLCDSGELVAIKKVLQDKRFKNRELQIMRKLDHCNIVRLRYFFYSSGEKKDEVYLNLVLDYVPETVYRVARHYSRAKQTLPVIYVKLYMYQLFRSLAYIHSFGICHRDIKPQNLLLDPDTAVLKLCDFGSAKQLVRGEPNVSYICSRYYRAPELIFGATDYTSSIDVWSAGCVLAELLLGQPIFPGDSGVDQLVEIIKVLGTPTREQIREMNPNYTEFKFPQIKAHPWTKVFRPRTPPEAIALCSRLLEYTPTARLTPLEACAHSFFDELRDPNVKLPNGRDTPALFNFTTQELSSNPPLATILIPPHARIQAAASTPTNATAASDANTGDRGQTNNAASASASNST

[42] = molecular target: Hepatocyte growth factor receptor (Homo sapiens) (UniProt P08581); assay: Inhibition of human MET at 1 uM relative to control
[43] = Oral bioavailability in Sprague-Dawley rat at 10 mg/kg measured upto 12 hrs by LC-MS/MS analysis; assay type: ADME, organism-based; settings: in vivo

BDNF/NT-3 growth factors receptor (Homo sapiens), sequence (Q16620 32-822 limits assumed): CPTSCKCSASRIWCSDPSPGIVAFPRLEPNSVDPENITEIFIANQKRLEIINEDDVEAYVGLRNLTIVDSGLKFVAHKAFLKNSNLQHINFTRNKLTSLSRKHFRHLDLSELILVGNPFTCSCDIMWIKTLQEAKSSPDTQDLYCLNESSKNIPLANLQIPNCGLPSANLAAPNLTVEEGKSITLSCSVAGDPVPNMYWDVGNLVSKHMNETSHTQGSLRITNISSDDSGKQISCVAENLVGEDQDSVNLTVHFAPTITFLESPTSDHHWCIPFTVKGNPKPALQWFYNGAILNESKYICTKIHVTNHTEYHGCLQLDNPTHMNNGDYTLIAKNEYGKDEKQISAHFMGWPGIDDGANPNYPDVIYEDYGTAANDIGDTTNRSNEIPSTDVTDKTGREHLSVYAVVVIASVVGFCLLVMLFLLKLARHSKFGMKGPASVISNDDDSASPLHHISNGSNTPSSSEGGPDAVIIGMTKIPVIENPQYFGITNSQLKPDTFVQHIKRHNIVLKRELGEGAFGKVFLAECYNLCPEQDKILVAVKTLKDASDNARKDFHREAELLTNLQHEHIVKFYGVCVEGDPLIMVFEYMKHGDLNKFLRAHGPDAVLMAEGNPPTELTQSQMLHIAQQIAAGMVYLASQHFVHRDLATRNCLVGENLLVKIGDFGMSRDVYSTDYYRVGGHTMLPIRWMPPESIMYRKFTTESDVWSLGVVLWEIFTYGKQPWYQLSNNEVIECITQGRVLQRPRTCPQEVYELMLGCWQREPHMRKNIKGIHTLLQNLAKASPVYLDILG

inhibition [1]: 0%
inhibition [2]: 24%
CL/F [3]: 154 mL/min/kg
inhibition [4]: 6%
inhibition [5]: 10%
inhibition [6]: 0%
half-life [7]: 97.8 min
inhibition [8]: Active
inhibition [9]: Active
Cmax [10]: 706 ng/mL
inhibition [11]: 8%
inhibition [12]: 9%
inhibition [13]: 4%
inhibition [14]: 0%
inhibition [15]: 2%
MRT [16]: 1.76 h
inhibition [17]: 8%
inhibition [18]: 0%
inhibition [19]: 10%
inhibition [20]: 1%
inhibition [21]: 48%
AUC [22]: 983.09 µg·h/L
inhibition [23]: 0%
inhibition [24]: 2%
inhibition [25]: 10%
inhibition [26]: 15%
inhibition [27]: 1%
inhibition [28]: 0%
AUC(0-inf) [29]: 784 ng·h/mL
Tmax [30]: 45 min
inhibition [31]: 0%
inhibition [32]: 0%
inhibition [33]: 0%
inhibition [34]: 0%
inhibition [35]: 1%
inhibition [36]: 23%
inhibition [37]: 6%
inhibition [38]: 43%
inhibition [39]: 0%
inhibition [40]: 30%
inhibition [41]: 0%
inhibition [42]: 0%
bioavailability [43]: 39.8%
Compound: Cc1ccc(NC(=O)CCc2cccc(-c3cnc4[nH]ccc4c3)c2)cc1C(F)(F)F

From ChEMBL document CHEMBL5113525, “Discovery of the Novel 1H-Pyrrolo[2,3-b]pyridine Derivative as a Potent Type II CDK8 Inhibitor against Colorectal Cancer” (J Med Chem, 2022)
